Reference: patent publication US20200290950A1, “ALKAMIDE COMPOUNDS AND USES THEREOF” (NORTH CAROLINA STATE UNIVERSITY, priority 2017, published 2020)

Columns and labels:
[1] = system: bone marrow derived mast cells (BMMCs); experiment: β-hexosaminidase degranulation assay, BMMCs; format: cell-based; conditions: Mus musculus, BMMC, A23187-stimulated BMMCs, 1 hr, read-out: maximum inhibition of release of β-hex
Method: FIGS. 1A-1F. A15 inhibits BMMC and RBL-2H3 cell degranulation. The structure of alkamide A15 is shown with different functional groups and carbons in the fatty acid chain labeled (FIG. 1A). BMMCs were plated and stimulated 4 hrs later with 1 μM A23187 and the indicated concentrations of A15 or vehicle only. The percent degranulation was measured after 1 hr (FIG. 1B). RBL-2H3 cells were treated with A23187 and the percent degranulation was determined 1 hr later (FIG. 1C) or every 10 min over a 1 hr time course (FIG. 1D). RBL-2H3 cells were plated and incubated for 4 hrs before the media was aspirated and replaced with media containing 1 μg/mL IgE anti-DNP. Cells were incubated overnight and washed prior to stimulation. The percent degranulation from RBL-2H3 cells was calculated after stimulation with 50 ng/mL DNP-HSA in combination with the indicated concentrations of A15 or vehicle only after 1 hr (FIG. 1E). RBL-2H3 cells were stimulated for 1 hr in Tyrode's buffer before supernatants were collected and levels of histamine were measured using a competitive inhibition EIA kit (FIG. 1F). […]
RBL-2H3 cell and BMMC degranulation was measured using a β-hexosaminidase (β-hex) activity assay. […]

[2] = system: BMMCs; experiment: Toluidine blue staining of granules in BMMCs; format: cell-based, mouse
Method: FIG. 2. A15 inhibits granule release from BMMCs. […] BMMCs were cytocentrifuged onto a glass slide, fixed, stained with toluidine blue (1%, pH<1) for 30 min, and washed before observing microscopically. Images were acquired at 400× magnification and are representative.

[3] = biological target: T1, TRPV1 (Mus musculus, UniProt Q704Y3); experiment: Calcium response of DRG neurons to capsaicin; format: cell-based; conditions: cultured DRG neurons, fluorescence microscopy
T1 construct: The receptors TRPA1 and TRPV1 are expressed on neurons; from tissue; host or cells: primary dorsal root ganglion neurons from mice
T1 sequence (Q704Y3 whole entry): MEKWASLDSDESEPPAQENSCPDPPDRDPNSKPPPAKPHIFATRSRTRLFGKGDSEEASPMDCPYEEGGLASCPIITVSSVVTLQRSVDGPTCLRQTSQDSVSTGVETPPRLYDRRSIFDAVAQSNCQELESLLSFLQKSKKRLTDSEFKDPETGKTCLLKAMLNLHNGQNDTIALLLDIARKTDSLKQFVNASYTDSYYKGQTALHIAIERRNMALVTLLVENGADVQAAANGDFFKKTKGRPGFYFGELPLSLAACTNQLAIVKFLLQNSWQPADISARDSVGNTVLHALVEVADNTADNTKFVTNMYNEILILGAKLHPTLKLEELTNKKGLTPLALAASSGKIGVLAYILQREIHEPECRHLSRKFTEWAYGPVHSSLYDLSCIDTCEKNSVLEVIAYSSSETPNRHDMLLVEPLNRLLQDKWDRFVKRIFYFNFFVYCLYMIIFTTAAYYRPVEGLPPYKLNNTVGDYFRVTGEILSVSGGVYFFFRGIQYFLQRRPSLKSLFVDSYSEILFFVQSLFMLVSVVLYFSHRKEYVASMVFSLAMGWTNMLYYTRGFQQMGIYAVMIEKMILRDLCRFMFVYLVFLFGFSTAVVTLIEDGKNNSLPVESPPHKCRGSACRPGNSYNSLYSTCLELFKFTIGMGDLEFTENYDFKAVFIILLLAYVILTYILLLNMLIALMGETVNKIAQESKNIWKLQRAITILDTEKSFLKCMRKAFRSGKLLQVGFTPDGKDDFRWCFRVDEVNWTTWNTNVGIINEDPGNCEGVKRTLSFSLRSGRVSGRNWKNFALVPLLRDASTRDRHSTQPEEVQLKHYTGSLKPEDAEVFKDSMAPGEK
Excerpt: FIG. 11. Calcium response from DRG sensory neurons to alkamide of transient receptors. Mustard a TRPA1-receptor agonist activates DRG neurons in gray (A) and capsaicin, an agonist for TRPV1-receptors in the DRG neurons in red (B). Ligand A15 inhibits both TRPA1 and TRPV1 receptors activation in orange; however, 85Y a synthetic ligand only reduces the inhibition of TRPA1 but not TRPV1 receptors in blue. Total number of neurons (n)=135-145; p≤0.05.
Several different model systems were utilized for these experiments. In one model, dorsal root ganglia were obtained from mice and the neurons cultured in vitro. The neurons were then stimulated in the presence/absence of A15 and YM8-85 and the calcium responses monitored by fluorescence microscopy. In the second model, the alkamides were applied to mouse skin in mineral oil. The reactions of these mice to heat, cold, and tactile stimulation was then compared with mice that had not received treatment with A15. […] Alkamides were applied to sensitized animals and then ear swelling and bouts of scratching were monitored.
In vitro DRG neuron responses. […] Neurons were stimulated with mustard (allyl isothiocyanate) (A) an agonist for the receptor TRPA-1 or capsaicin (B) an agonist for the receptor TRPV-1 and calcium responses were measured in individual neurons by fluorescence microscopy. […]

## CCCCCCC/C=C/C=C/C(=O)NCC(C)C [A15, (2E,4E)-N-Isobutyldodeca-2,4-dienamide]
[1]
  inhibition at 100 µM: 83.5%
[2]; 100 μM A15 alone, 30 min
  toluidine blue staining, compound alone: did not noticeably affect staining
[2]; 100 μM A15 with 1 μM A23187, 30 min
  A23187-induced reduction of toluidine blue staining (granule release): blocked
[3]
  DRG neuron calcium response to capsaicin (TRPV1 agonist): inhibited
